Reference: ChEMBL document CHEMBL3885881, “DrugMatrix”

Organism: Rattus norvegicus
Experiment: DrugMatrix - Regimen: Daily Repeat
Format: toxicity, organism-based, Sprague-Dawley
Design: regimen Daily Repeat, gender Male, age 6-8 weeks
Settings: in vivo, iv, vehicle 100 % SALINE; for ABSOLUTE BASOPHIL / ABSOLUTE EOSINOPHIL / ABSOLUTE LYMPHOCYTE / ABSOLUTE MONOCYTE / ABSOLUTE SEGMENTED NEUTROPHIL / BASOPHIL / EOSINOPHIL / ERYTHROCYTE COUNT / HEMATOCRIT / HEMOGLOBIN / LEUKOCYTE COUNT / LYMPHOCYTE / MEAN CORPUSCULAR HEMOGLOBIN / MEAN CORPUSCULAR HEMOGLOBIN CONCENTRATION / MEAN CORPUSCULAR VOLUME / MONOCYTE / NEUTROPHIL / NUCLEATED RED BLOOD CELLS / PLATELET COUNT: tissue Blood; for ALANINE AMINOTRANSFERASE / ALBUMIN / ALKALINE PHOSPHATASE / ASPARTATE AMINOTRANSFERASE / BLOOD UREA NITROGEN / CARBON DIOXIDE / CHLORIDE / CHOLESTEROL / CREATINE PHOSPHOKINASE / CREATININE / GLUCOSE / LACTATE DEHYDROGENASE / LIPASE / PHOSPHORUS / POTASSIUM / SODIUM / TOTAL BILIRUBIN / TOTAL PROTEIN / URIC ACID: tissue Plasma
[1] = 0.4 mg/kg, 72 h, dose level Low, time 3 day
[2] = 0.4 mg/kg, 120 h, dose level Low, time 5 day
[3] = 4 mg/kg, 72 h, dose level High, time 3 day
[4] = 4 mg/kg, 120 h, dose level High, time 5 day

## CCCCN1CCCC[C@H]1C(=O)Nc1c(C)cccc1C [LEVOBUPIVACAINE]
[1]
  ABSOLUTE BASOPHIL: 0 CELLS/uL
  ABSOLUTE EOSINOPHIL: 254.67 CELLS/uL
  ABSOLUTE LYMPHOCYTE: 15126.67 CELLS/uL
  ABSOLUTE MONOCYTE: 468.33 CELLS/uL
  ABSOLUTE SEGMENTED NEUTROPHIL: 1383.67 CELLS/uL
  BASOPHIL: 0%
  EOSINOPHIL: 1.33%
  ERYTHROCYTE COUNT: 5.99 x10E6/uL
  HEMATOCRIT: 37.7%
  HEMOGLOBIN: 13.83 G/DL
  LEUKOCYTE COUNT: 17.23 x10E3/uL
  LYMPHOCYTE: 88.33%
  MEAN CORPUSCULAR HEMOGLOBIN: 23.17 pg
  MEAN CORPUSCULAR HEMOGLOBIN CONCENTRATION: 36.7 G/DL
  MEAN CORPUSCULAR VOLUME: 63.07 fL
  MONOCYTE: 2.67%
  NEUTROPHIL: 7.67%
  NUCLEATED RED BLOOD CELLS: 0 /100WBC
  PLATELET COUNT: 1404.67 x10E3/uL
  ALANINE AMINOTRANSFERASE: 48.33 u/L
  ALBUMIN: 4.3 G/DL
  ALKALINE PHOSPHATASE: 344.33 u/L
  ASPARTATE AMINOTRANSFERASE: 82.67 u/L
  BLOOD UREA NITROGEN: 17.33 mg/dL
  CARBON DIOXIDE: 22 mmol/L
  CHLORIDE: 106 MEQ/L
  CHOLESTEROL: 74 mg/dL
  CREATINE PHOSPHOKINASE: 243 u/L
  CREATININE: 0.23 mg/dL
  GLUCOSE: 167.67 mg/dL
  LACTATE DEHYDROGENASE: 317 u/L
  LIPASE: 9 u/L
  PHOSPHORUS: 13.87 mg/dL
  POTASSIUM: 6.74 MEQ/L
  SODIUM: 148.9 MEQ/L
  TOTAL BILIRUBIN: 0.2 mg/dL
  TOTAL PROTEIN: 6.3 G/DL
  URIC ACID: 2.5 mg/dL
[2]
  ABSOLUTE BASOPHIL: 0 CELLS/uL
  ABSOLUTE EOSINOPHIL: 140.33 CELLS/uL
  ABSOLUTE LYMPHOCYTE: 13101.33 CELLS/uL
  ABSOLUTE MONOCYTE: 294.33 CELLS/uL
  ABSOLUTE SEGMENTED NEUTROPHIL: 1864 CELLS/uL
  BASOPHIL: 0%
  EOSINOPHIL: 1%
  ERYTHROCYTE COUNT: 5.93 x10E6/uL
  HEMATOCRIT: 37%
  HEMOGLOBIN: 14 G/DL
  LEUKOCYTE COUNT: 15.4 x10E3/uL
  LYMPHOCYTE: 85.33%
  MEAN CORPUSCULAR HEMOGLOBIN: 23.6 pg
  MEAN CORPUSCULAR HEMOGLOBIN CONCENTRATION: 37.83 G/DL
  MEAN CORPUSCULAR VOLUME: 62.47 fL
  MONOCYTE: 2%
  NEUTROPHIL: 11.67%
  NUCLEATED RED BLOOD CELLS: 0.33 /100WBC
  PLATELET COUNT: 1119 x10E3/uL
  ALANINE AMINOTRANSFERASE: 67.67 u/L
  ALBUMIN: 4.13 G/DL
  ALKALINE PHOSPHATASE: 394 u/L
  ASPARTATE AMINOTRANSFERASE: 122.67 u/L
  BLOOD UREA NITROGEN: 20 mg/dL
  CARBON DIOXIDE: 24.67 mmol/L
  CHLORIDE: 107.33 MEQ/L
  CHOLESTEROL: 54.33 mg/dL
  CREATINE PHOSPHOKINASE: 430.33 u/L
  CREATININE: 0.2 mg/dL
  GLUCOSE: 154.33 mg/dL
  LACTATE DEHYDROGENASE: 798.67 u/L
  LIPASE: 8.67 u/L
  PHOSPHORUS: 13.03 mg/dL
  POTASSIUM: 5.58 MEQ/L
  SODIUM: 148.47 MEQ/L
  TOTAL BILIRUBIN: 0.1 mg/dL
  TOTAL PROTEIN: 6.2 G/DL
  URIC ACID: 1.57 mg/dL
[3]
  ABSOLUTE BASOPHIL: 0 CELLS/uL
  ABSOLUTE EOSINOPHIL: 0 CELLS/uL
  ABSOLUTE LYMPHOCYTE: 11600.33 CELLS/uL
  ABSOLUTE MONOCYTE: 405 CELLS/uL
  ABSOLUTE SEGMENTED NEUTROPHIL: 1828 CELLS/uL
  BASOPHIL: 0%
  EOSINOPHIL: 0%
  ERYTHROCYTE COUNT: 5.58 x10E6/uL
  HEMATOCRIT: 35.27%
  HEMOGLOBIN: 13.37 G/DL
  LEUKOCYTE COUNT: 13.83 x10E3/uL
  LYMPHOCYTE: 83.67%
  MEAN CORPUSCULAR HEMOGLOBIN: 23.93 pg
  MEAN CORPUSCULAR HEMOGLOBIN CONCENTRATION: 37.9 G/DL
  MEAN CORPUSCULAR VOLUME: 63.2 fL
  MONOCYTE: 3%
  NEUTROPHIL: 13.33%
  NUCLEATED RED BLOOD CELLS: 0.33 /100WBC
  PLATELET COUNT: 1307 x10E3/uL
  ALANINE AMINOTRANSFERASE: 41.33 u/L
  ALBUMIN: 4.27 G/DL
  ALKALINE PHOSPHATASE: 430.67 u/L
  ASPARTATE AMINOTRANSFERASE: 83.33 u/L
  BLOOD UREA NITROGEN: 15.67 mg/dL
  CARBON DIOXIDE: 24.67 mmol/L
  CHLORIDE: 105.67 MEQ/L
  CHOLESTEROL: 62 mg/dL
  CREATINE PHOSPHOKINASE: 275.67 u/L
  CREATININE: 0.23 mg/dL
  GLUCOSE: 152 mg/dL
  LACTATE DEHYDROGENASE: 383 u/L
  LIPASE: 8.67 u/L
  PHOSPHORUS: 13.3 mg/dL
  POTASSIUM: 6.04 MEQ/L
  SODIUM: 146.8 MEQ/L
  TOTAL BILIRUBIN: 0.2 mg/dL
  TOTAL PROTEIN: 5.77 G/DL
  URIC ACID: 1.43 mg/dL
[4]
  ABSOLUTE BASOPHIL: 0 CELLS/uL
  ABSOLUTE EOSINOPHIL: 0 CELLS/uL
  ABSOLUTE LYMPHOCYTE: 14035 CELLS/uL
  ABSOLUTE MONOCYTE: 328 CELLS/uL
  ABSOLUTE SEGMENTED NEUTROPHIL: 2037 CELLS/uL
  BASOPHIL: 0%
  EOSINOPHIL: 0%
  ERYTHROCYTE COUNT: 5.6 x10E6/uL
  HEMATOCRIT: 34.2%
  HEMOGLOBIN: 13.05 G/DL
  LEUKOCYTE COUNT: 16.4 x10E3/uL
  LYMPHOCYTE: 85.5%
  MEAN CORPUSCULAR HEMOGLOBIN: 23.3 pg
  MEAN CORPUSCULAR HEMOGLOBIN CONCENTRATION: 38.15 G/DL
  MEAN CORPUSCULAR VOLUME: 61.1 fL
  MONOCYTE: 2%
  NEUTROPHIL: 12.5%
  NUCLEATED RED BLOOD CELLS: 0.5 /100WBC
  PLATELET COUNT: 1167 x10E3/uL
  ALANINE AMINOTRANSFERASE: 38 u/L
  ALBUMIN: 4.35 G/DL
  ALKALINE PHOSPHATASE: 311 u/L
  ASPARTATE AMINOTRANSFERASE: 72.5 u/L
  BLOOD UREA NITROGEN: 18 mg/dL
  CARBON DIOXIDE: 26.5 mmol/L
  CHLORIDE: 103 MEQ/L
  CHOLESTEROL: 57.5 mg/dL
  CREATINE PHOSPHOKINASE: 325.5 u/L
  CREATININE: 0.17 mg/dL
  GLUCOSE: 150.5 mg/dL
  LACTATE DEHYDROGENASE: 321.5 u/L
  LIPASE: 8 u/L
  PHOSPHORUS: 13.4 mg/dL
  POTASSIUM: 6.04 MEQ/L
  SODIUM: 146.65 MEQ/L
  TOTAL BILIRUBIN: 0.1 mg/dL
  TOTAL PROTEIN: 6.05 G/DL
  URIC ACID: 1.5 mg/dL
